From the supplement of paper PMC8617591

Tests used:
[1] = test system: Mycobacterium tuberculosis Erdman (autoluminescent); assay: Einf, fitted maximum growth inhibition of three-drug combination (fraction); higher = stronger maximal inhibition
Method: (§1)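 DiaMOND equipotent three-drug combination dose responses (10 doses, 1.5- or 2-fold spacing, centred on IC90) against autoluminescent M. tuberculosis Erdman in 8 in vitro models. Read-out is OD600, or luminescence for the intracellular and dormancy models, normalised to untreated wells. Hill-fit Einf, AUC25 and GRinf are potency metrics; FIC50 and FIC90 are total Loewe fractional inhibitory concentrations as log2 (negative = synergy).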

[2] = test system: Mycobacterium tuberculosis Erdman (autoluminescent); assay: total FIC50 (Loewe) at 50% inhibition, three-drug combination (log2); higher = more antagonistic
Method: as §1

[3] = test system: Mycobacterium tuberculosis Erdman (autoluminescent); assay: AUC25, normalised area under dose response up to IC25 (three-drug combination) (fraction (0-1)); higher = more potent at low dose
Method: as §1

[4] = test system: Mycobacterium tuberculosis Erdman (autoluminescent); assay: GRinf, maximum normalised growth rate inhibition (three-drug combination) (unitless (-1 to 1)); higher = less effect (negative = killing)
Method: as §1

[5] = test system: Mycobacterium tuberculosis Erdman (autoluminescent); assay: total FIC90 (Loewe) at 90% inhibition, three-drug combination (log2); higher = more antagonistic
Method: as §1

O=[N+]([O-])c1cn2c(n1)OC[C@@H](OCc1ccc(OC(F)(F)F)cc1)C2 [pretomanid] + NC(=O)c1cnccn1 [pyrazinamide] + CO[C@H]1/C=C/O[C@@]2(C)Oc3c(C)c(O)c4c(O)c(c(/C=N/N5CCN(C6CCCC6)CC5)c(O)c4c3C2=O)NC(=O)/C(C)=C\C=C\[C@H](C)[C@H](O)[C@@H](C)[C@@H](O)[C@@H](C)[C@H](OC(C)=O)[C@@H]1C [rifapentine]
Conditions	AUC25, [3]	Einf, [1]	GRinf, [4]	total FIC50, [2]	total FIC90, [5]
in vitro model: acidic pH 5.7, time point: constant (~7 days, model-specific)	0.0839	0.9	-0.227	-0.141	–
in vitro model: acidic pH 5.7, time point: terminal (~4-5 doublings, model-specific)	0.0799	0.992	-0.234	-0.0208	-0.284
in vitro model: intracellular J774, time point: constant = terminal	–	0.98	-0.184	–	0.00169

Conditions	AUC25, [3]	Einf, [1]	GRinf, [4]	total FIC50, [2]	total FIC90, [5]
in vitro model: butyrate, time point: constant (~7 days, model-specific)	0.101	0.889	0.102	0.0451	-0.0718
in vitro model: butyrate, time point: terminal (~4-5 doublings, model-specific)	0.0909	0.956	0.0745	0.0568	0.587
in vitro model: cholesterol 0.05 mM, time point: constant (~7 days, model-specific)	0.118	0.768	-0.296	–	–
in vitro model: cholesterol 0.05 mM, time point: terminal (~4-5 doublings, model-specific)	0.103	0.936	-0.415	1.28	–
in vitro model: cholesterol-high 0.2 mM, time point: constant (~7 days, model-specific)	0.0849	0.919	-0.211	0.553	–
in vitro model: cholesterol-high 0.2 mM, time point: terminal (~4-5 doublings, model-specific)	0.0594	0.999	-0.626	1.12	0.566
in vitro model: dormancy (butyrate + nitrate, low O2), time point: constant (~7 days, model-specific)	0.0875	0.881	0.197	0.097	0.142
in vitro model: dormancy (butyrate + nitrate, low O2), time point: terminal (~4-5 doublings, model-specific)	0.0996	0.995	-0.152	-0.593	0.838
in vitro model: standard 7H9 glycerol, time point: constant = terminal	0.0581	0.893	0.139	-0.0175	–
in vitro model: valerate, time point: constant (~7 days, model-specific)	0.0881	0.855	0.0565	0.0684	–
in vitro model: valerate, time point: terminal (~4-5 doublings, model-specific)	0.0574	0.918	0.0492	0.378	-0.054

O=[N+]([O-])c1cn2c(n1)OC[C@@H](OCc1ccc(OC(F)(F)F)cc1)C2 [pretomanid] + NC(=O)c1cnccn1 [pyrazinamide] + CO[C@H]1/C=C/O[C@@]2(C)Oc3c(C)c(O)c4c(O)c(c(/C=N/N5CCN(C)CC5)c(O)c4c3C2=O)NC(=O)/C(C)=C\C=C\[C@H](C)[C@H](O)[C@@H](C)[C@@H](O)[C@@H](C)[C@H](OC(C)=O)[C@@H]1C [rifampicin]
Conditions	AUC25, [3]	Einf, [1]	GRinf, [4]	total FIC50, [2]	total FIC90, [5]
in vitro model: acidic pH 5.7, time point: constant (~7 days, model-specific)	0.0685	0.907	-0.202	0.112	–
in vitro model: acidic pH 5.7, time point: terminal (~4-5 doublings, model-specific)	0.0533	0.988	-0.228	0.156	-0.637
in vitro model: intracellular J774, time point: constant = terminal	–	0.981	-0.237	–	-0.273

Conditions	AUC25, [3]	Einf, [1]	GRinf, [4]	total FIC50, [2]	total FIC90, [5]
in vitro model: butyrate, time point: constant (~7 days, model-specific)	0.1	0.875	0.153	-0.0322	–
in vitro model: butyrate, time point: terminal (~4-5 doublings, model-specific)	0.098	0.943	0.0978	-0.158	0.429
in vitro model: cholesterol 0.05 mM, time point: constant (~7 days, model-specific)	0.109	0.694	-0.0437	–	–
in vitro model: cholesterol 0.05 mM, time point: terminal (~4-5 doublings, model-specific)	0.0891	0.895	-0.0945	1.25	–
in vitro model: cholesterol-high 0.2 mM, time point: constant (~7 days, model-specific)	0.071	0.867	-0.142	0.75	–
in vitro model: cholesterol-high 0.2 mM, time point: terminal (~4-5 doublings, model-specific)	0.0574	0.997	-0.5	1.36	0.673
in vitro model: dormancy (butyrate + nitrate, low O2), time point: constant (~7 days, model-specific)	0.0775	0.863	0.209	-0.0806	-0.525
in vitro model: dormancy (butyrate + nitrate, low O2), time point: terminal (~4-5 doublings, model-specific)	0.0697	0.983	-0.11	-0.485	-0.0518
in vitro model: standard 7H9 glycerol, time point: constant = terminal	0.0634	0.897	0.147	-0.426	–
in vitro model: valerate, time point: constant (~7 days, model-specific)	0.0616	0.854	0.084	0.491	–
in vitro model: valerate, time point: terminal (~4-5 doublings, model-specific)	0.0376	0.933	0.0442	0.477	-0.0725

NC(=O)c1cnccn1 [pyrazinamide] + CO[C@H]1/C=C/O[C@@]2(C)Oc3c(C)c(O)c4c(O)c(c(/C=N/N5CCN(C6CCCC6)CC5)c(O)c4c3C2=O)NC(=O)/C(C)=C\C=C\[C@H](C)[C@H](O)[C@@H](C)[C@@H](O)[C@@H](C)[C@H](OC(C)=O)[C@@H]1C [rifapentine] + CO[C@H]1/C=C/O[C@@]2(C)Oc3c(C)c(O)c4c(O)c(c(/C=N/N5CCN(C)CC5)c(O)c4c3C2=O)NC(=O)/C(C)=C\C=C\[C@H](C)[C@H](O)[C@@H](C)[C@@H](O)[C@@H](C)[C@H](OC(C)=O)[C@@H]1C [rifampicin]
Conditions	AUC25, [3]	Einf, [1]	GRinf, [4]	total FIC50, [2]	total FIC90, [5]
in vitro model: acidic pH 5.7, time point: constant (~7 days, model-specific)	0.0803	0.896	-0.145	-0.178	–
in vitro model: acidic pH 5.7, time point: terminal (~4-5 doublings, model-specific)	0.0647	0.979	-0.174	-0.202	-1.03
in vitro model: intracellular J774, time point: constant = terminal	–	0.97	-0.213	–	-0.0544

Conditions	AUC25, [3]	Einf, [1]	GRinf, [4]	total FIC50, [2]	total FIC90, [5]
in vitro model: butyrate, time point: constant (~7 days, model-specific)	0.117	0.881	0.12	0.0365	1.12
in vitro model: butyrate, time point: terminal (~4-5 doublings, model-specific)	0.103	0.952	0.104	0.198	0.732
in vitro model: cholesterol 0.05 mM, time point: constant (~7 days, model-specific)	0.115	0.629	0.0861	–	–
in vitro model: cholesterol 0.05 mM, time point: terminal (~4-5 doublings, model-specific)	0.0851	0.89	-0.108	0.707	–
in vitro model: cholesterol-high 0.2 mM, time point: constant (~7 days, model-specific)	0.0773	0.925	-0.227	0.97	–
in vitro model: cholesterol-high 0.2 mM, time point: terminal (~4-5 doublings, model-specific)	0.0817	1	-0.793	1.26	1.04
in vitro model: dormancy (butyrate + nitrate, low O2), time point: constant (~7 days, model-specific)	0.083	0.871	0.235	-0.0928	-0.329
in vitro model: dormancy (butyrate + nitrate, low O2), time point: terminal (~4-5 doublings, model-specific)	0.0472	0.977	-0.125	-0.147	-0.16
in vitro model: standard 7H9 glycerol, time point: constant = terminal	0.0549	0.884	0.17	-0.259	–
in vitro model: valerate, time point: constant (~7 days, model-specific)	0.0552	0.833	0.0781	0.198	–
in vitro model: valerate, time point: terminal (~4-5 doublings, model-specific)	0.0295	0.925	0.0607	0.142	-0.0108
